The target in experiment [1] is T1, human factor XIa (Homo sapiens, UniProt P03951).
T1 construct: purchased Kordia
Kind of experiment: Measurement of FXIa inhibition (fluorogenic peptide substrate Boc-Glu(OBzl)-Ala-Arg-AMC). It counts as biochemical. The conditions noted are these: factor XIa from Kordia 0.45 nM, 15 min pre-incubation, 30 min at 22° C., fluorescence. As for the experimental part: The factor XIa inhibition of the substances according to the invention is determined using a biochemical test system which utilizes the reaction of a peptidic factor XIa substrate to determine the enzymatic activity of human factor XIa. Here, factor XIa cleaves from the peptic factor XIa substrate the C-terminal aminomethylcoumarin (AMC), the fluorescence of which is measured. The determinations are carried out in microtitre plates.
Test substances are dissolved in dimethyl sulphoxide and serially diluted in dimethyl sulphoxide (3000 μM to 0.0078 μM; resulting final concentrations in the test: 50 μM to 0.00013 μM). In each case 1 μl of the diluted substance solutions is placed into the wells of white microtitre plates from Greiner (384 wells). Subsequently, the following are added successively: 20 μl of assay buffer (50 mmol/l Tris buffer pH 7.4; 100 mmol/l sodium chloride; 5 mmol/l calcium chloride; 0.1% bovine serum albumin) and 20 μl of factor XIa from Kordia (0.45 nM in assay buffer). After 15 min of incubation, the enzyme reaction is started by addition of 20 μl of the factor XIa substrate Boc-Glu(OBzl)-Ala-Arg-AMC dissolved in assay buffer (10 μM in assay buffer) from Bachem, the mixture is incubated at room temperature (22° C.) for 30 min and fluorescence is then measured (excitation: 360 nm, emission: 460 nm). The measured emissions of the test batches with test substance are compared to those of control batches without test substance (only dimethyl sulphoxide instead of test substance in dimethyl sulphoxide), and IC50 values are calculated from the concentration/activity relationships.

For experiment [2], the system named is human and animal plasma. Kind of experiment: Determination of anticoagulatory activity: activated partial thromboplastin time (aPTT) in plasma. Conditions: concentration of test substance which brings about a 1.5-fold extension of the aPTT; plasma in vitro, C.K. Prest kit. As for the experimental part:
The anticoagulatory activity of the test substances is determined in vitro in human and animal plasma (for example mouse, rat, rabbit, pig and dog plasma). To this end, blood is drawn off in a mixing ratio of sodium citrate/blood of 1:9 using a 0.11 molar sodium citrate solution as receiver. Immediately after the blood has been drawn off, it is mixed thoroughly and centrifuged at about 4000 g for 15 minutes. The supernatant is pipetted off.
The activated partial thromboplastin time (aPTT) is determined in the presence of varying concentrations of test substance or the corresponding solvent using a commercial test kit (C.K. Prest from Diagnostica Stago). The test compounds are incubated with the plasma and the PTT reagent (cephalin, kaolin) at 37° C. for 3 minutes. Coagulation is then started by addition of a 25 mM aqueous calcium chloride solution, and the time when coagulation occurs is determined. The concentration of test substance which brings about a 1.5-fold extension of the aPTT is determined.

Structures can show the parent of a compound that is named as a salt.

T1 sequence (P03951 388-625 limits assumed): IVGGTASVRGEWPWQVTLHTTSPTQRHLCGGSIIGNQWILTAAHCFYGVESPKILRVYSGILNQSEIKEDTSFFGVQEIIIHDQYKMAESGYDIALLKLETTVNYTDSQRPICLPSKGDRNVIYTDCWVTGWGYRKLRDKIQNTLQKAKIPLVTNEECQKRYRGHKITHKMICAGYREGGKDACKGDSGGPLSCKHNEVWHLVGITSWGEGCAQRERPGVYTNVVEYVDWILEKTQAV
T1 sequence (P03951 19-387 partner limits assumed): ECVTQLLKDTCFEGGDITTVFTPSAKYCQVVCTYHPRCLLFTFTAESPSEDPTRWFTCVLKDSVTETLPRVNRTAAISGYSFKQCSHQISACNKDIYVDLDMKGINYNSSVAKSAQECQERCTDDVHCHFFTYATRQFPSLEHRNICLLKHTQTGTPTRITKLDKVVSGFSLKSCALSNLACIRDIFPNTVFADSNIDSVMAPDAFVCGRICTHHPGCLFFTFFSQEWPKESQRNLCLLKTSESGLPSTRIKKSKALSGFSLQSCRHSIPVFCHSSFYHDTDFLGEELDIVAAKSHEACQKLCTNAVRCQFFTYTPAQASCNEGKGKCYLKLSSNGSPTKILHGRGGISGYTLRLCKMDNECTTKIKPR

The compound `Cc1ccc(S(=O)(=O)NCc2ccccc2)cc1-c1cccc(C[C@H](NC(=O)[C@H]2CC[C@H](CN)CC2)C(=O)Nc2ccc(-c3nnn[nH]3)cc2)c1` [Example 1, trans-4-(Aminomethyl)-N-[(2S)-3-[5′-(benzylsulphamoyl)-2′-methylbiphenyl-3-yl]-1-oxo-1-{[4-(1H-tetrazol-5-yl)phenyl]amino}propan-2-yl]cyclohexanecarboxamide hydrochloride] showed an IC50 in experiment [1] of 0.4 nM. In experiment [2], this compound showed an aPTT of 0.1 µmol/L.
In the same order, the values of `Cc1ccc(S(=O)(=O)N2CCCC2)cc1-c1cccc(C[C@H](NC(=O)[C@H]2CC[C@H](CN)CC2)C(=O)Nc2ccc(-c3nnn[nH]3)cc2)c1` [Example 2, trans-4-(Aminomethyl)-N-[(2S)-3-[2′-methyl-5′-(pyrrolidin-1-ylsulphonyl)biphenyl-3-yl]-1-oxo-1-{[4-(1H-tetrazol-5-yl)phenyl]amino}propan-2-yl]cyclohexanecarboxamide hydrochloride] are 1.1 nM and 0.08 µmol/L.
For `Cc1ccc(S(=O)(=O)N(C)C)cc1-c1cccc(C[C@H](NC(=O)[C@H]2CC[C@H](CN)CC2)C(=O)Nc2ccc(-c3nnn[nH]3)cc2)c1` [Example 4, trans-4-(Aminomethyl)-N-[(2S)-3-[5′-(dimethylsulphamoyl)-2′-methylbiphenyl-3-yl]-1-oxo-1-{[4-(1H-tetrazol-5-yl)phenyl]amino}propan-2-yl]cyclohexanecarboxamide hydrochloride] the same measures were 1.5 nM and 0.21 µmol/L.
Consider `NC[C@H]1CC[C@H](C(=O)N[C@@H](Cc2cccc(-c3cccc(S(N)(=O)=O)c3)c2)C(=O)Nc2ccc(-c3nnn[nH]3)cc2)CC1` [Example 5, trans-4-(Aminomethyl)-N-[(2S)-1-oxo-3-(3′-sulphamoylbiphenyl-3-yl)-1-{[4-(1H-tetrazol-5-yl)phenyl]amino}propan-2-yl]cyclohexanecarboxamide hydrochloride], for which 3.4 nM corresponded to half-maximal inhibition in experiment [1] (IC50). The same compound gave an aPTT in experiment [2] of 0.23 µmol/L.
In the same order, the values of `NC[C@H]1CC[C@H](C(=O)N[C@@H](Cc2cccc(-c3cccc(S(=O)(=O)NC4CC4)c3)c2)C(=O)Nc2ccc(-c3nnn[nH]3)cc2)CC1` [Example 6, trans-4-(Aminomethyl)-N-[(2S)-3-[3′-(cyclopropylsulphamoyl)biphenyl-3-yl]-1-oxo-1-{[4-(1H-tetrazol-5-yl)phenyl]amino}propan-2-yl]cyclohexanecarboxamide hydrochloride] are 1.9 nM and 0.27 µmol/L.
The compound `Cc1cc(S(=O)(=O)N(C)C)ccc1-c1cccc(C[C@H](NC(=O)[C@H]2CC[C@H](CN)CC2)C(=O)Nc2ccc(-c3nnn[nH]3)cc2)c1` [Example 7, trans-4-(Aminomethyl)-N-[(2S)-3-[4′-(dimethylsulphamoyl)-2′-methylbiphenyl-3-yl]-1-oxo-1-{[4-(1H-tetrazol-5-yl)phenyl]amino}propan-2-yl]cyclohexanecarboxamide hydrochloride] showed an IC50 in experiment [1] of 1.7 nM. Also, the aPTT in experiment [2] was 0.33 µmol/L.
For `COc1ccc(-c2cccc(C[C@H](NC(=O)[C@H]3CC[C@H](CN)CC3)C(=O)Nc3ccc(-c4nnn[nH]4)cc3)c2)cc1S(=O)(=O)N1CCOCC1` [Example 8, trans-4-(Aminomethyl)-N-[(2S)-3-[4′-methoxy-3′-(morpholin-4-ylsulphonyl)biphenyl-3-yl]-1-oxo-1-{[4-(1H-tetrazol-5-yl)phenyl]amino}propan-2-yl]cyclohexanecarboxamide hydrochloride] the same measures were 3.8 nM and 0.41 µmol/L.
For `Cc1ccc(S(=O)(=O)N2CCOCC2)cc1-c1cccc(C[C@H](NC(=O)[C@H]2CC[C@H](CN)CC2)C(=O)Nc2ccc(-c3n[nH]c(=O)[nH]3)cc2)c1` [Example 9, trans-4-(Aminomethyl)-N-[(2S)-3-[2′-methyl-5′-(morpholin-4-ylsulphonyl)biphenyl-3-yl]-1-oxo-1-{[4-(5-oxo-4,5-dihydro-1H-1,2,4-triazol-3-yl)phenyl]amino}propan-2-yl]cyclohexanecarboxamide hydrochloride], the 50% inhibitory concentration (IC50) in experiment [1] was found to be 9.6 nM. The compound also had an aPTT in experiment [2] of 0.14 µmol/L.
For `Cc1ccc(S(=O)(=O)N2CCOCC2)cc1-c1cccc(C[C@H](NC(=O)[C@H]2CC[C@H](CN)CC2)C(=O)Nc2ccc3[nH]c(=O)[nH]c3c2)c1` [Example 10, trans-4-(Aminomethyl)-N-{(2S)-3-[2′-methyl-5′-(morpholin-4-ylsulphonyl)biphenyl-3-yl]-1-oxo-1-[(2-oxo-2,3-dihydro-1H-benzimidazol-5-yl)amino]propan-2-yl}cyclohexanecarboxamide hydrochloride] the same measures were 13 nM and 0.23 µmol/L.
In turn, `Cc1ccc(S(=O)(=O)N2CCCC2)cc1-c1cccc(C[C@H](NC(=O)[C@H]2CC[C@H](CN)CC2)C(=O)Nc2ccc3[nH]c(=O)[nH]c3c2)c1` [Example 11, trans-4-(Aminomethyl)-N-{(2S)-3-[2′-methyl-5′-(pyrrolidin-1-ylsulphonyl)biphenyl-3-yl]-1-oxo-1-[(2-oxo-2,3-dihydro-1H-benzimidazol-5-yl)amino]propan-2-yl}cyclohexanecarboxamide hydrochloride] gave a concentration for half-maximal inhibition (IC50) in experiment [1] of 7.9 nM. In experiment [2], this compound yielded an aPTT of 0.3 µmol/L.
Take `Cc1ccc(S(=O)(=O)NCc2ccccc2)cc1-c1cccc(C[C@H](NC(=O)[C@H]2CC[C@H](CN)CC2)C(=O)Nc2ccc3[nH]c(=O)[nH]c3c2)c1` [Example 12, trans-4-(Aminomethyl)-N-{(2S)-3-[5′-(benzylsulphamoyl)-2′-methylbiphenyl-3-yl]-1-oxo-1-[(2-oxo-2,3-dihydro-1H-benzimidazol-5-yl)amino]propan-2-yl}cyclohexanecarboxamide hydrochloride]: in experiment [1], the IC50 turned out to be 3.2 nM. In experiment [2], the aPTT was determined as 0.3 µmol/L.
Regarding `NC[C@H]1CC[C@H](C(=O)N[C@@H](Cc2cccc(-c3ccnc(N4CCOCC4)c3)c2)C(=O)Nc2ccc(-c3nn[nH]n3)cc2)CC1` [Example 85, N-alpha-{[trans-4-(Aminomethyl)cyclohexyl]carbonyl}-3-[2-(morpholin-4-yl)pyridin-4-yl]-N-[4-(2H-tetrazol-5-yl)phenyl]-L-phenylalaninamide hydrochloride], in experiment [1], the 50% inhibitory concentration (IC50) came out at 2.4 nM.
On the same count and under the same terms, for `NC[C@H]1CC[C@H](C(=O)N[C@@H](Cc2cccc(-c3cnc(N4CCOCC4)nc3)c2)C(=O)Nc2ccc(-c3n[nH]c(=O)[nH]3)cc2)CC1` [Example 88, N-alpha-{[trans-4-(Aminomethyl)cyclohexyl]carbonyl}-3-[2-(morpholin-4-yl)pyrimidin-5-yl]-N-[4-(5-oxo-4,5-dihydro-1H-1,2,4-triazol-3-yl)phenyl]-L-phenylalaninamide hydrochloride] the value was 29 nM.
The compound `Cc1cnccc1-c1cccc(C[C@H](NC(=O)[C@H]2CC[C@H](CN)CC2)C(=O)Nc2ccc(-c3n[nH]c(=O)[nH]3)cc2)c1` [Example 89, N-alpha-{[trans-4-(Aminomethyl)cyclohexyl]carbonyl}-3-(3-methylpyridin-4-yl)-N-[4-(5-oxo-4,5-dihydro-1H-1,2,4-triazol-3-yl)phenyl]-L-phenylalaninamide hydrochloride] gave an aPTT in experiment [2] of 0.46 µmol/L.
In experiment [1], `NC[C@H]1CC[C@H](C(=O)N[C@@H](Cc2cccc(-c3cnc(O)nc3)c2)C(=O)Nc2ccc(-c3nnn[nH]3)cc2)CC1` [Example 99, N-alpha-{[trans-4-(Aminomethyl)cyclohexyl]carbonyl}-3-(2-hydroxypyrimidin-5-yl)-N-[4-(1H-tetrazol-5-yl)phenyl]-L-phenylalaninamide hydrochloride] came in with an IC50 of 8.9 nM.
On the same count and under the same terms, for `COCc1nnc(-c2ccc(NC(=O)[C@H](Cc3cccc(-c4ccccc4C(C)C)c3)NC(=O)[C@H]3CC[C@H](CN)CC3)cc2)[nH]1` [Example 104, trans-4-(Aminomethyl)-N-[(2S)-3-(2′-isopropylbiphenyl-3-yl)-1-({4-[3-(methoxymethyl)-4H-1,2,4-triazol-5-yl]phenyl}amino)-1-oxopropan-2-yl]cyclohexanecarboxamide hydrochloride] the value was 8.6 nM.

The values are drawn from patent publication US20160244437A1, “SUBSTITUTED PHENYLALANINE DERIVATIVES” (BAYER PHARMA AKTIENGESELLSCHAFT, priority 2013, published 2016).
